In the supplement of paper PMC11061612 one finds Bliss excess data, which are given here for seven compounds.

What all share (experiment): Bliss excess, mean over the matrix (fraction); higher = more synergy
One assay concerns A673 (Ewing's Sarcoma). The gist of the method:
(§1)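 After 24 hours at 37°C and 5% CO2 in 1536-well plates, cells in DMEM/F12 or RPMI plus 10% FBS received two-drug dose matrices for 72 hours. Viability came from CellTiter-Glo 2.0 luminescence and was scaled as inhibition, anchored at 0 by vehicle wells and at 1 by blank wells. Combination Emax is taken as the second-highest inhibition in the matrix, and Bliss excess as the observed combination effect less EA + EB − EA·EB, with EA and EB the single-agent effects.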

Assay [1] relates to ALL-PO (B-Lymphoblastic Leukemia). The gist of the method: as §1
The subject of another assay is BE2-M17 (Neuroblastoma). The gist of the method: as §1
The subject of another assay is BPH-1 (Non-Cancerous). The method in brief: as §1
The subject of assay [2] is CAL-33 (Oral Cavity Carcinoma). The method in brief: as §1
Another assay deals with CAL-72 (Osteosarcoma). The gist of the method: as §1
The subject of assay [3] is Detroit562 (Head and Neck Carcinoma). The method in brief:
as §1

Assay [4] relates to ESS-1 (Other Solid Carcinomas). The gist of the method: as §1
In the next assay the test system is EW-11 (Ewing's Sarcoma). The method in brief:
as §1

Assay [5] concerns Hs-746T (Gastric Carcinoma). The method in brief: as §1
Assay [6] relates to HuH-7 (Hepatocellular Carcinoma). The method in brief: as §1
Another assay deals with KS-1 (Glioblastoma). The method in brief:
as §1

In assay [7] the test system is LCLC-97TM1 (Non-Small Cell Lung Carcinoma). The gist of the method:
as §1

Assay [8] deals with NCI-H1568 (Lung Adenocarcinoma). The gist of the method:
as §1

The subject of another assay is NCI-H2722 (Mesothelioma). The method in brief:
as §1

Assay [9] deals with NCI-H524 (Small Cell Lung Carcinoma). The method in brief: as §1
In assay [10] the test system is OE21 (Esophageal Squamous Cell Carcinoma). The gist of the method: as §1
The test system of assay [11] is TGBC1TKB (Biliary Tract Carcinoma). The gist of the method: as §1
Assay [12] relates to WSU-NHL (B-Cell Non-Hodgkin's Lymphoma). The gist of the method:
as §1

The test system of assay [13] is YAPC (Pancreatic Carcinoma). The method in brief:
as §1

For `COc1cccc(OCCCN)c1-c1cc(Nc2cnc(C#N)cn2)n[nH]1` [Prexasertib] + C=CCn1c(=O)c2cnc(Nc3ccc(N4CCN(C)CC4)cc3)nc2n1-c1cccc(C(C)(C)O)n1 [AZD1775] (first compound max 1 µM, partner max 1 µM), the Bliss excess turned out to be 0.0752 in the assay on A673 (Ewing's Sarcoma); 0.0744 in [1]; 0.098 with BE2-M17 (Neuroblastoma); 0.115 with BPH-1 (Non-Cancerous); 0.117 in assay [2]; 0.0055 with CAL-72 (Osteosarcoma). Moreover, the Bliss excess in [3] was 0.0416; in assay [4], 0.0299; in the assay with EW-11 (Ewing's Sarcoma), -0.0815; in [5] it was -0.0572; in assay [6], 0.0469; with KS-1 (Glioblastoma) it was -0.0244. In addition, the Bliss excess in [7] is 0.057; in assay [8] it was 0.0284; in the assay with NCI-H2722 (Mesothelioma) it was 0.0156; in assay [9], 0.053; in [10], -0.0663; in assay [11], 0.0068. Besides, the Bliss excess in assay [12] was 0.0303; in assay [13], 0.0441.
For `CC(=O)c1c(C)c2cnc(Nc3ccc(N4CCNCC4)cn3)nc2n(C2CCCC2)c1=O` [Palbociclib] + Cn1cnc2c(F)c(Nc3ccc(Br)cc3Cl)c(C(=O)NOCCO)cc21 [Selumetinib] (first compound max 10 µM, 7x7, partner max 10 µM), the Bliss excess with A673 (Ewing's Sarcoma) was -0.009; in [1], 0.0243; in the assay on BE2-M17 (Neuroblastoma) it was -0.0339; with BPH-1 (Non-Cancerous), -0.0755; in assay [2] it was 0.0345; in the assay with CAL-72 (Osteosarcoma), 0.0683. For the same compound, the Bliss excess in assay [3] is -0.0041; in assay [4] it was -0.0097; in the assay on EW-11 (Ewing's Sarcoma), -0.0298; in assay [5] it was -0.0475; in assay [6], -0.0584; in the assay on KS-1 (Glioblastoma) it was -0.0012. Further, the Bliss excess in assay [7] is 0.0728; in [8] it was -0.109; in the assay on NCI-H2722 (Mesothelioma), -0.069; in assay [9] it was -0.0403; in [10] it was 0.0877; in assay [11] it was -0.0251. For the same compound, the Bliss excess in assay [12] came out at 0.107; in [13], 0.0156.
Turning to `Cc1c2c(nn1C)CSCc1cc(n(C)n1)CSc1cc(c3ccccc3c1)OCCCc1c(C(=O)O)n(C)c3c-2c(Cl)ccc13` [AZD5991] + Cn1cnc2c(F)c(Nc3ccc(Br)cc3Cl)c(C(=O)NOCCO)cc21 [Selumetinib] (first compound max 1 µM, 7x7, partner max 3 µM), the Bliss excess in the assay on A673 (Ewing's Sarcoma) was 0.12; in assay [1], 0.0056; with BE2-M17 (Neuroblastoma), 0.0436; with BPH-1 (Non-Cancerous) it was 0.0216; in [2], 0.0814; in the assay with CAL-72 (Osteosarcoma), 0.0483. The Bliss excess is 0.0295 in assay [3]; 0.0083 in [4]; -0.0106 in the assay with EW-11 (Ewing's Sarcoma); -0.018 in [5]; -0.0361 in [6]; -0.0456 in the assay with KS-1 (Glioblastoma). Moreover, the Bliss excess in [7] was 0.0506; in assay [8], 0.102; in the assay with NCI-H2722 (Mesothelioma) it was 0.0081; in assay [9], -0.0129; in assay [10] it was 0.0286; in [11] it was -0.0181. Also, the figures for the Bliss excess in [12] and in assay [13] were -0.0489 and -0.003, respectively.
Regarding `CC(=O)c1c(C)c2cnc(Nc3ccc(N4CCNCC4)cn3)nc2n(C2CCCC2)c1=O` [Palbociclib] + Cc1c2c(nn1C)CSCc1cc(n(C)n1)CSc1cc(c3ccccc3c1)OCCCc1c(C(=O)O)n(C)c3c-2c(Cl)ccc13 [AZD5991] (first compound max 10 µM, 7x7, partner max 1 µM), the Bliss excess in the assay on A673 (Ewing's Sarcoma) is -0.0903; in assay [1] it was -0.0065; in the assay on BE2-M17 (Neuroblastoma), 0.0096; in the assay on BPH-1 (Non-Cancerous), -0.0476; in [2] it was 0.016; in the assay on CAL-72 (Osteosarcoma), -0.0073. Also, the Bliss excess in assay [3] was -0.0131; in assay [4] it was -0.0067; with EW-11 (Ewing's Sarcoma) it was 0.0284; in assay [5], -0.0293; in [6], -0.011; with KS-1 (Glioblastoma), -0.0556. Besides, the Bliss excess in assay [7] was -0.0149; in assay [8] it was -0.0149; with NCI-H2722 (Mesothelioma), -0.0649; in [9] it was 0.0019; in [10], -0.0088; in [11] it was -0.0082. In addition, the Bliss excess in assay [12] is -0.0269; in [13], -0.0037.
With `NC1(C(=O)N[C@@H](CCO)c2ccc(Cl)cc2)CCN(c2ncnc3[nH]ccc23)CC1` [Capivasertib] + CC(C)n1c(=O)n(C)c2cnc3cc(F)c(-c4ccc(OCCCN5CCCCC5)nc4)cc3c21 [AZD1390] (first compound max 10 µM, 7x7, partner max 0.3 µM), the Bliss excess with A673 (Ewing's Sarcoma) is -0.0885; in assay [1], -0.0382; in the assay with BE2-M17 (Neuroblastoma) it was -0.115; in the assay with BPH-1 (Non-Cancerous), -0.0842; in assay [2] it was -0.0018; in the assay on CAL-72 (Osteosarcoma), -0.133. The Bliss excess in assay [3] is -0.0122; in assay [4], -0.0078; with EW-11 (Ewing's Sarcoma), -0.0438; in assay [5] it was -0.0445; in assay [6], -0.045; with KS-1 (Glioblastoma), -0.0969. Also, the Bliss excess in assay [7] is -0.0278; in assay [8], -0.0852; in the assay with NCI-H2722 (Mesothelioma) it was -0.0512; in assay [9], -0.0033; in [10], -0.0474; in [11] it was 0.004. Further, the Bliss excess in assay [12] is -0.0418; in assay [13], -0.0105.
Regarding `Cc1c2c(nn1C)CSCc1cc(n(C)n1)CSc1cc(c3ccccc3c1)OCCCc1c(C(=O)O)n(C)c3c-2c(Cl)ccc13` [AZD5991] + C[C@@H](Nc1cc(F)cc(F)c1)c1cc(C(=O)N(C)C)cc2c(=O)cc(N3CCOCC3)oc12 [AZD8186] (first compound max 1 µM, 7x7, partner max 3 µM), the Bliss excess in the assay with A673 (Ewing's Sarcoma) is 0.0129; in [1] it was -0.0248; in the assay on BE2-M17 (Neuroblastoma), -0.0355; in the assay with BPH-1 (Non-Cancerous), 0.0078; in assay [2], -0.0099; in the assay with CAL-72 (Osteosarcoma) it was -0.0149. Further, the Bliss excess in assay [3] was 0.0065; in assay [4], -0.045; with EW-11 (Ewing's Sarcoma), -0.0009; in [5], 0.0106; in assay [6] it was -0.007; in the assay on KS-1 (Glioblastoma), -0.0129. In addition, the Bliss excess in assay [7] is -0.003; in assay [8], 0.0126; in the assay with NCI-H2722 (Mesothelioma), -0.0434; in assay [9], -0.0289; in assay [10] it was 0.0258; in [11], -0.0236. For the same compound, the Bliss excess in assay [12] is -0.0366; in assay [13], -0.0159.
Take `CN(CCO)CC[C@H](CSc1ccccc1)Nc1ccc(S(=O)(=O)NC(=O)c2ccc(N3CCC([C@@H](O)c4ccccc4-c4ccc(Cl)cc4)CC3)cc2)cc1S(=O)(=O)C(F)(F)F` [AZD4320] + C1CN(CCC1(C(=O)N[C@@H](CCO)C2=CC=C(C=C2)Cl)N)C3=NC=NC4=C3C=CN4 [Capivasertib] (first compound max 1 µM, 7x7, partner max 3 µM): the Bliss excess is 0.0099 in the assay with A673 (Ewing's Sarcoma); 0.0177 in assay [1]; 0.006 in the assay with BE2-M17 (Neuroblastoma); -0.0496 in the assay with BPH-1 (Non-Cancerous); -0.0424 in [2]; -0.0184 with CAL-72 (Osteosarcoma). Moreover, the Bliss excess is -0.0535 in [3]; 0.0028 in [4]; 0.0405 with EW-11 (Ewing's Sarcoma); 0.0094 in [5]; -0.0402 in assay [6]; -0.0435 in the assay with KS-1 (Glioblastoma). In addition, the Bliss excess in assay [7] is -0.0048; in [8], -0.0518; with NCI-H2722 (Mesothelioma), -0.081; in assay [9] it was -0.0517; in assay [10] it was 0.0073; in [11], -0.0306. Also, the Bliss excess is -0.0413 in assay [12] and -0.0415 in [13].
